In patent US20220033434A1, “ANDROGEN RECEPTOR NUCLEIC ACIDS AND USES THEREOF” (Avidity Biosciences, Inc., priority 2016, published 2022):
In the oligonucleotide strings, read from the 5' end, every base follows the letter of its sugar. An asterisk marks phosphorothioate; unmarked linkages are phosphodiester. Other units and linkages are bracketed, terminal groups are in braces. A string of capitals states the bases alone. d = 2'-deoxy (DNA); m = 2'-O-methyl; f = 2'-fluoro

Columns and labels:
Assay type in all cases: cell-based, human
AR FL(1) = experiment: AR protein knock-down by Western blot after siRNA transfection in 22RV1 cells: AR FL(1); settings: 5 nM siRNA, 50 h post transfection, compared to controls
Method: (§1) In some instances, a set of AR siRNAs were identified that were predicted to be specific in human and non-human primates (NHP) and cross-reactive with NHPs but not rodent AR mRNA. To identify AR siRNAs that regulate both full length AR and clinically relevant AR splice variants, the search for AR siRNAs was focused primarily, but not exclusively, on exons 1, 2 and 3 of the AR gene, which are common to most AR isoforms. The resulting set of 50 AR siRNAs (Tables 1-3) was assessed in two prostate cancer lines that express high levels of either clinically relevant AR splice variants (22RV1, ATCC) or a full length AR T877A LBD mutant (LNCaP, ATCC). The response of LNCaP tumors in xenograft models to AR antagonists is known to correlate well with clinical responses.
(§2) To monitor their ability to downregulate various AR isoforms, each siRNA was formulated at a single final concentration of 5 nM with a commercially-available transfection reagent (Lipofectamine RNAiMAX, Life Technologies) according to the manufacturer's “forward transfection” instructions. At 50 h (22RV1) and 72 h (LNCaP) post transfection, cells were harvested, and lysed in RIPA buffer (Pierce) supplemented with HALT protease inhibitors (Pierce) using standard procedures. The protein concentration was determined using a BCA protein concentration kit (Pierce). To monitor AR levels in these lysates, proteins (30 ug/lane) were separated by PAGE on BOLT 4-12% Bis-Tris PA gels (Life Technologies), transferred to nitrocellulose using an iBlot dry blot system (Thermo Fisher), and probed with specific antibodies against a region of the N-terminal domain of human AR that is common in known clinically relevant splice variants (N20, Santa Cruz Biotech). A second antibody against α-Tubulin was used as control (P16, Santa Cruz Biotech). Levels of these proteins in the respective cell lysates were quantified on an Odyssey imaging system (LICOR) using appropriate secondary antibodies linked to IRDyes (800CW, 680RD).

AR-SV(2) = experiment: AR protein knock-down by Western blot after siRNA transfection in 22RV1 cells: AR-SV(2); settings: 5 nM siRNA, 50 h post transfection, compared to controls
Method: as §1, §2

AR-SV(3) = experiment: AR protein knock-down by Western blot after siRNA transfection in 22RV1 cells: AR-SV(3); settings: 5 nM siRNA, 50 h post transfection, compared to controls
Method: as §1, §2

[1] = test system: AR FL (full length AR T877A LBD mutant); experiment: AR protein knock-down by Western blot after siRNA transfection in LNCaP cells: AR FL; settings: 5 nM siRNA, 72 h post transfection, compared to controls
Method: as §1, §2

Row | Substance | % KD AR Protein 22RV1 AR FL(1) (AR FL(1)) [%] | % KD AR Protein 22RV1 AR-SV(2) (AR-SV(2)) [%] | % KD AR Protein 22RV1 AR-SV(3) (AR-SV(3)) [%] | % KD AR Protein LNCaP AR FL [1] [%]
1 | XD-01846: AR siRNA with chemical modification, Id # 2975; sense X05387 (SEQ ID NO: 217), antisense X05388 (SEQ ID NO: 218) (sense mUmUfAmUfGmAfAmGfCmAfGmGfGmAfUmGfAmCfUdT*dT; antisense fAfGmUfCmAfUmCfCmCfUmGfCmUfUmCfAmUfAmAdT*dT) | 87 | 94 | 76 | 94
2 | XD-01860: AR siRNA with chemical modification, Id # 3629; sense X05415 (SEQ ID NO: 245), antisense X05416 (SEQ ID NO: 246) (sense mAmCfUmCfGmAfUmCfGmUfAmUfCmAfUmUfGmCfAdT*dT; antisense fUfGmCfAmAfUmGfAmUfAmCfGmAfUmCfGmAfGmUdT*dT) | 90 | −9 | 4 | 99
3 | XD-01822: AR siRNA with chemical modification, Id # 2263; sense X05339 (SEQ ID NO: 169), antisense X05340 (SEQ ID NO: 170) (sense mCmCfCmAfCmGfCmUfCmGfCmAfUmCfAmAfGmCfUdT*dT; antisense fAfGmCfUmUfGmAfUmGfCmGfAmGfCmGfUmGfGmGdT*dT) | 34 | 33 | 41 | 88
4 | XD-01848: AR siRNA with chemical modification, Id # 3101; sense X05391 (SEQ ID NO: 221), antisense X05392 (SEQ ID NO: 222) (sense mGmUfCmAfCmAfCmAfUmUfGmAfAmGfGmCfUmAfUdT*dT; antisense fAfUmAfGmCfCmUfUmCfAmAfUmGfUmGfUmGfAmCdT*dT) | 87 | 31 | 27 | 101
5 | XD-01838: AR siRNA with chemical modification, Id # 2931; sense X05371 (SEQ ID NO: 201), antisense X05372 (SEQ ID NO: 202) (sense mAmAfAmUfUmCfCmGfAmAfGmGfAmAfAmAfAmUfUdT*dT; antisense fAfAmUfUmUfUmUfCmCfUmUfCmGfGmAfAmUfUmUdT*dT) | 85 | 65 | 67 | 88
6 | XD-01824: AR siRNA with chemical modification, Id # 2741; sense X05343 (SEQ ID NO: 173), antisense X05344 (SEQ ID NO: 174) (sense mUmGfCmCfAmGfGmGfAmCfCmAfUmGfUmUfUmUfGdT*dT; antisense fCfAmAfAmAfCmAfUmGfGmUfCmCfCmUfGmGfCmAdT*dT) | 3 | −32 | −44 | 45
7 | XD-01814: AR siRNA with chemical modification, Id # 1784; sense X05323 (SEQ ID NO: 153), antisense X05324 (SEQ ID NO: 154) (sense mCmAfAmUfUmAfCmUfUmAfGmGfGmGfGmCfAmCfUdT*dT; antisense fAfGmUfGmCfCmCfCmCfUmAfAmGfUmAfAmUfUmGdT*dT) | −7 | 20 | −30 | 94
8 | XD-01854: AR siRNA with chemical modification, Id # 3416; sense X05403 (SEQ ID NO: 233), antisense X05404 (SEQ ID NO: 234) (sense mUmGfAmUfCmUfGmGfUmUfUmUfCmAfAmUfGmAfGdT*dT; antisense fCfUmCfAmUfUmGfAmAfAmAfCmCfAmGfAmUfCmAdT*dT) | 95 | 38 | 46 | 93
9 | XD-01833: AR siRNA with chemical modification, Id # 2922; sense X05361 (SEQ ID NO: 191), antisense X05362 (SEQ ID NO: 192) (sense mAmCfUmAfUmUfGmAfUmAfAmAfUmUfCmCfGmAfAdT*dT; antisense fUfUmCfGmGfAmAfUmUfUmAfUmCfAmAfUmAfGmUdT*dT) | 94 | 91 | 77 | 91
10 | XD-01843: AR siRNA with chemical modification, Id # 2961; sense X05381 (SEQ ID NO: 211), antisense X05382 (SEQ ID NO: 212) (sense mCmGfUmCfUmUfCmGfGmAfAmAfUmGfUmUfAmUfGdT*dT; antisense fCfAmUfAmAfCmAfUmUfUmCfCmGfAmAfGmAfCmGdT*dT) | 78 | 75 | 47 | 94
11 | XD-01856: AR siRNA with chemical modification, Id # 3469; sense X05407 (SEQ ID NO: 237), antisense X05408 (SEQ ID NO: 238) (sense mGmUfGmUfCmCfGmAfAmUfGmAfGmGfCmAfCmCfUdT*dT; antisense fAfGmGfUmGfCmCfUmCfAmUfUmCfGmGfAmCfAmCdT*dT) | 77 | −61 | −74 | 99
12 | XD-01851: AR siRNA with chemical modification, Id # 3217; sense X05397 (SEQ ID NO: 227), antisense X05398 (SEQ ID NO: 228) (sense mUmGfCmUfCmUfCmUfAmGfCmCfUmCfAmAfUmGfAdT*dT; antisense fUfCmAfUmUfGmAfGmGfCmUfAmGfAmGfAmGfCmAdT*dT) | 50 | 2 | 8 | 84
13 | XD-01858: AR siRNA with chemical modification, Id # 3475; sense X05411 (SEQ ID NO: 241), antisense X05412 (SEQ ID NO: 242) (sense mGmAfAmUfGmAfGmGfCmAfCmCfUmCfUmCfUmCfAdT*dT; antisense fUfGmAfGmAfGmAfGmGfUmGfCmCfUmCfAmUfUmCdT*dT) | 93 | 25 | 66 | 99
14 | XD-01853: AR siRNA with chemical modification, Id # 3310; sense X05401 (SEQ ID NO: 231), antisense X05402 (SEQ ID NO: 232) (sense mAmCfGmAfCmCfAmGfAmUfGmGfCmUfGmUfCmAfUdT*dT; antisense fAfUmGfAmCfAmGfCmCfAmUfCmUfGmGfUmCfGmUdT*dT) | 91 | −43 | 13 | 99
15 | XD-01823: AR siRNA with chemical modification, Id # 2739; sense X05341 (SEQ ID NO: 171), antisense X05342 (SEQ ID NO: 172) (sense mAmCfUmGfCmCfAmGfGmGfAmCfCmAfUmGfUmUfUdT*dT; antisense fAfAmAfCmAfUmGfGmUfCmCfCmUfGmGfCmAfGmUdT*dT) | −5 | 0 | −19 | 79
16 | XD-01845: AR siRNA with chemical modification, Id # 2966; sense X05385 (SEQ ID NO: 215), antisense X05386 (SEQ ID NO: 216) (sense mUmCfGmGfAmAfAmUfGmUfUmAfUmGfAmAfGmCfAdT*dT; antisense fUfGmCfUmUfCmAfUmAfAmCfAmUfUmUfCmCfGmAdT*dT) | 92 | 92 | 72 | 99
17 | XD-01850: AR siRNA with chemical modification, Id # 3107; sense X05395 (SEQ ID NO: 225), antisense X05396 (SEQ ID NO: 226) (sense mCmAfUmUfGmAfAmGfGmCfUmAfUmGfAmAfUmGfUdT*dT; antisense fAfCmAfUmUfCmAfUmAfGmCfCmUfUmCfAmAfUmGdT*dT) | 86 | 14 | 5 | 82
